Test results published in PubChem BioAssay (NCI).
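Values below derive from 48-hour exposures of cells grown in 96-well plates, with endpoints linearly interpolated between the two concentrations bracketing the appropriate inhibition level. The concentration for 50% growth inhibition is given as GI50. The concentration for full growth arrest is given as TGI.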

Columns and labels:
Assay in all cases: NCI tumour cell line growth inhibition, 48 h
SF-295 CNS = test system: SF-295 CNS
MDA-MB-435 = test system: MDA-MB-435
HCC-2998 colon = test system: HCC-2998 colon
MDA-MB-231 breast = test system: MDA-MB-231 breast
OVCAR-5 ovarian = test system: OVCAR-5 ovarian
NCI-H226 lung = test system: NCI-H226 lung
ACHN renal = test system: ACHN renal
T-47D breast = test system: T-47D breast
K-562 leukemia = test system: K-562 leukemia
SN12C renal = test system: SN12C renal
SNB-75 CNS = test system: SNB-75 CNS
HCT-15 colon = test system: HCT-15 colon

SMILES | TGI (SF-295 CNS) [µM] | TGI (MDA-MB-435) [µM] | TGI (HCC-2998 colon) [µM] | TGI (MDA-MB-231 breast) [µM] | TGI (OVCAR-5 ovarian) [µM] | TGI (NCI-H226 lung) [µM] | TGI (ACHN renal) [µM] | TGI (T-47D breast) [µM] | TGI (K-562 leukemia) [µM] | TGI (SN12C renal) [µM] | TGI (SNB-75 CNS) [µM] | TGI (HCT-15 colon) [µM] | GI50 (HCC-2998 colon) [µM] | GI50 (SNB-75 CNS) [µM]
N=c1oc2c(Cl)cc(Cl)cc2cc1C(=O)Nc1ccccn1 | > 100 | > 100 | > 100 | > 100 | > 100 | > 100 | 64.4 | > 100 | > 100 | > 100 | 46.1 | > 100 | – | –
CC(=O)Nc1ccc(-c2nc3ccccc3s2)cc1O | > 100 | > 100 | > 100 | > 100 | 93.8 | 45.9 | > 100 | > 100 | > 100 | > 100 | > 100 | > 100 | – | –
O=C(/C(=C/c1cccs1)c1ccccc1)c1ccccc1 | > 100 | > 100 | > 100 | > 100 | > 100 | > 100 | > 100 | > 100 | > 100 | > 100 | > 100 | > 100 | – | –
CC1Cc2cc(O)ccc2C2[C@@H]1C1CC[C@H](O)[C@@]1(C)C[C@@H]2O[N+](=O)[O-] (stereo partly specified) | 39.2 | 16.9 | 22 | 85.8 | > 100 | > 100 | > 100 | > 84.3 | 49.4 | > 94.4 | > 100 | > 78.7 | – | –
CC1OC(OC2CC(O)(C(=O)CO)Cc3c(O)c4c(c(O)c32)C(=O)c2ccccc2C4=O)CC(N)C1O (stereo unspecified) | 0.0818 | 1.49 | 0.084 | 7.4 | 0.721 | < 0.0228 | 0.134 | 0.134 | 9.2 | 0.887 | 0.107 | 1.99 | – | –
Cc1nc2c(ncn2CCO)c(=O)[nH]1 | > 100 | > 100 | > 100 | > 100 | > 100 | > 100 | > 100 | > 100 | > 100 | > 100 | > 100 | > 100 | – | –
CC(=O)O[C@H]1[C@@H](N2CCN(C)CC2)C[C@H]2[C@@H]3CC=C4C[C@@H](N5CCCC5)CC[C@]4(C)[C@H]3CC[C@@]21C | 53.5 | > 100 | > 100 | > 100 | > 100 | > 100 | > 100 | > 100 | 33 | > 100 | > 100 | > 100 | – | –
OCSc1nn(CO)c(=S)s1 | 71.9 | 34.3 | 43.3 | 68.1 | > 100 | 92.9 | 68.1 | 66.6 | 43.4 | 49.4 | 67.1 | 37.8 | – | –
COC(=O)CCC(=O)c1ccc2c(c1)CC1(C2)Cc2ccc3c(c2C1)CCCC3=O (stereo unspecified) | 79.3 | 19.9 | > 93.9 | > 100 | > 100 | 85.6 | > 70.2 | > 100 | 9.44 | > 100 | > 100 | > 67.4 | – | –
O=C(O)c1cc(Sc2ccc([N+](=O)[O-])c(C(=O)O)c2)ccc1[N+](=O)[O-] | > 100 | > 100 | > 100 | > 100 | > 100 | > 100 | > 100 | > 100 | > 100 | > 100 | > 100 | > 100 | > 100 | > 100
CCOP(=O)(OCC)/C(C#N)=C/c1c(C)[nH]c2ccccc12 | > 100 | > 100 | > 100 | > 100 | > 100 | > 100 | > 100 | > 100 | > 100 | > 100 | > 100 | > 100 | – | –
CC1(C)O[C@@H]2[C@@H]3OC(=O)C[C@@H]3[C@@H](COCc3ccccc3)[C@@H]2O1 | > 100 | > 100 | > 100 | > 100 | > 100 | > 100 | > 100 | > 100 | > 100 | > 100 | > 100 | > 100 | – | –
